Assay [1] has as its system Male Sprague-Dawley-CD rats. Kind of assay: Thermoregulative properties: core (rectal) temperature of rats at 4° C. after intracisternal injection. It is filed as in vivo, rat. Conditions: 60 minutes following injection, control 36.5°.
Protocol: The thermoregulative properties of the peptides were determined as follows:
Assay [2] has as its system Male Sprague-Dawley-CD rats. Kind of assay: Rise in plasma glucose after the 60 minute core temperature measurement. Further details: concentration or dose not given beside the values. It is filed as in vivo, rat. Conditions: rise in plasma glucose relative to Bombesin (= 100), after intracisternal injection. As for the experimental part: Male Sprague-Dawley-CD rats weighing 180-200 grams each were housed in temperature and humidity controlled quarters. The rats were fed a standard rat food ration and tap water ad libitum. After being anesthetized with ether, peptides were injected into the cisterna magna of the brain of each rat. The peptides were dissolved in artificial CSF or distilled water. Ten microliters of a peptide solution containing the specified amounts of the peptide were injected. Immediately following the injection, the animals were transferred to a cold room maintained at 4° C. Rectal temperatures were recorded with a thermo-probe at 60 minutes following injection. All experiments were carried out in a randomized block design. Following analyses of variance, differences between groups were determined by the multiple range test of Dunnet and Duncan using the computer program Exbiol.
Following the 60 minute measurement of core temperature, the rats were rapidly decapitated, blood was collected and plasma levels of glucose were determined using a Beckman glucose analyzer. The results in causing a rise in plasma glucose relative to Bombesin are set forth hereinafter in Table III.

The next assay concerns mammals. Conditions: compared with neurotensin and bombesin; cited from earlier work.

The values below come from patent US4331661A, “Bombesin analogs” (The Salk Institute for Biological Studies, priority 1980, dated 1982).

Non-standard residues stand in square brackets, D forms with d. Residues, ends and D or L forms follow the SMILES beside them. d(pGlu) = O=C1CC[C@H](C(=O)O)N1

For `CSCC[C@H](NC(=O)[C@H](CC(C)C)NC(=O)[C@H](Cc1c[nH]cn1)NC(=O)[C@@H](C)NC(=O)[C@@H](NC(=O)[C@H](C)NC(=O)[C@H](Cc1c[nH]c2ccccc12)NC(=O)[C@@H](CCC(N)=O)NC(C)=O)C(C)C)C(N)=O` [Peptide No. 3], the entries for the “CORE TEMPERATURE” value in assay [1] (dosage 10 picomoles) and in assay [1] (dosage 100 picomoles) were 32.3 °C and 31.9 °C, respectively. Moreover, the “POTENCY (Plasma Glucose)” value in assay [2] came to 150.
On to [d(pGlu)]WAV[dA]HLM-NH2, for which the “potency (analgesic and thermoregulative effects)” value in the assay on mammals is “more potent than neurotensin, it is less potent than bombesin”.
Regarding `CSCC[C@H](NC(=O)[C@H](CC(C)C)NC(=O)[C@H](Cc1c[nH]cn1)NC(=O)CNC(=O)[C@@H](NC(=O)[C@H](C)NC(=O)[C@H](Cc1c[nH]c2ccccc12)NC(=O)[C@H](Cc1c[nH]cn1)NC(C)=O)C(C)C)C(N)=O` [Peptide No. 1], the “CORE TEMPERATURE” value in assay [1] (dosage 1 nanomole) was 32.6 °C; in assay [1] (dosage 10 picomoles), 34.3 °C; in assay [1] (dosage 100 picomoles) it was 33.2 °C. Moreover, the “POTENCY (Plasma Glucose)” value in assay [2] was 100.
For the compound `CSCC[C@H](NC(=O)[C@H](CC(C)C)NC(=O)[C@H](Cc1c[nH]cn1)NC(=O)CNC(=O)[C@@H](NC(=O)[C@H](C)NC(=O)[C@H](Cc1c[nH]c2ccccc12)NC(=O)[C@H](C)NC(C)=O)C(C)C)C(N)=O` [Peptide No. 4], the entries for the “CORE TEMPERATURE” value in assay [1] (dosage 10 picomoles) and in assay [1] (dosage 100 picomoles) were 35.1 °C and 33.2 °C, respectively. The “POTENCY (Plasma Glucose)” value in assay [2] turned out to be 40.
For the compound `CSCC[C@H](NC(=O)[C@H](CC(C)C)NC(=O)[C@H](Cc1cnc[nH]1)NC(=O)CNC(=O)[C@@H](NC(=O)[C@H](C)NC(=O)[C@H](Cc1c[nH]c2ccccc12)NC(=O)[C@H](CCC(N)=O)NC(=O)[C@H](CC(N)=O)NC(=O)CNC(=O)[C@H](CC(C)C)NC(=O)[C@H](CCCN=C(N)N)NC(=O)[C@H](CCC(N)=O)NC(=O)[C@@H]1CCC(=O)N1)C(C)C)C(N)=O` [Bombesin], the “CORE TEMPERATURE” value in assay [1] (dosage 7 nanomoles) is 32.1 °C; in assay [1] (dosage 7 picomoles) it was 34.7 °C; in assay [1] (dosage 20 picomoles) it was 33.8 °C; in assay [1] (dosage 70 picomoles), 33 °C. The “POTENCY (Plasma Glucose)” value in assay [2] is 100.
For `CSCC[C@H](NC(=O)[C@H](CC(C)C)NC(=O)[C@H](Cc1c[nH]cn1)NC(=O)[C@@H](C)NC(=O)[C@@H](NC(=O)[C@H](C)NC(=O)[C@H](Cc1c[nH]c2ccccc12)NC(=O)[C@H](C)NC(C)=O)C(C)C)C(N)=O` [Peptide No. 2] (Ac-AWAV[dA]HLM-NH2), the “CORE TEMPERATURE” value in assay [1] (dosage 1 nanomole) is 30.4 °C; in assay [1] (dosage 10 picomoles) it was 34.3 °C; in assay [1] (dosage 100 picomoles), 31.9 °C. In assay [2], the “POTENCY (Plasma Glucose)” value was determined as 150.
